What follows are compounds tested on SNB-75 (assay: Growth inhibition of human SNB75 cells assessed as cell growth at 0.1 uM incubated for 48 hrs by sulforhodamine B assay relative to control). Conditions: SNB-75, 48 h, read-out: Activity.
Format: functional

| SMILES | growth at 0.1 µM [%] |
| --- | --- |
| O=C(Nc1cccc(-n2cc(-c3ccncc3)c(-c3cc(O)cc(Cl)c3)n2)c1)c1ccc(N2CCOCC2)c(C(F)(F)F)c1 | 83 |

The compounds below were run on IGROV-1 (assay: Growth inhibition of human IGROV1 cells assessed as cell growth at 100 uM incubated for 48 hrs by sulforhodamine B assay relative to control). Conditions: IGROV-1, 48 h, read-out: Activity.
Format: functional

| SMILES | growth at 100 µM [%] |
| --- | --- |
| O=C(Nc1cccc(-n2cc(-c3ccncc3)c(-c3cc(O)cc(Cl)c3)n2)c1)c1ccc(N2CCOCC2)c(C(F)(F)F)c1 | 25 |

Each compound was assayed on MDA-MB-468 (assay: Growth inhibition of human MDA-MB-468 cells assessed as cell growth at 0.1 uM incubated for 48 hrs by sulforhodamine B assay relative to control). Conditions: MDA-MB-468, 48 h, read-out: Activity.
Format: functional

| SMILES | growth at 0.1 µM [%] |
| --- | --- |
| O=C(Nc1cccc(-n2cc(-c3ccncc3)c(-c3cc(O)cc(Cl)c3)n2)c1)c1ccc(N2CCOCC2)c(C(F)(F)F)c1 | 54 |

What follows are compounds tested on OVCAR-3 (assay: Growth inhibition of human OVCAR3 cells assessed as cell growth at 0.01 uM incubated for 48 hrs by sulforhodamine B assay relative to control). Conditions: OVCAR-3, 48 h, read-out: Activity.
Format: functional

| SMILES | growth at 0.01 µM [%] |
| --- | --- |
| O=C(Nc1cccc(-n2cc(-c3ccncc3)c(-c3cc(O)cc(Cl)c3)n2)c1)c1ccc(N2CCOCC2)c(C(F)(F)F)c1 | 111 |

The compounds below were run on OVCAR-4 (assay: Growth inhibition of human OVCAR4 cells assessed as cell growth at 1 uM incubated for 48 hrs by sulforhodamine B assay relative to control). Conditions: OVCAR-4, 48 h, read-out: Activity.
Format: functional

| SMILES | growth at 1 µM [%] |
| --- | --- |
| O=C(Nc1cccc(-n2cc(-c3ccncc3)c(-c3cc(O)cc(Cl)c3)n2)c1)c1ccc(N2CCOCC2)c(C(F)(F)F)c1 | 99 |

Each compound was assayed on Malme-3M (assay: Growth inhibition of human MALME-3M cells assessed as cell growth at 0.01 uM incubated for 48 hrs by sulforhodamine B assay relative to control). Conditions: read-out: Activity.
Format: functional

| SMILES | growth at 0.01 µM [%] |
| --- | --- |
| O=C(Nc1cccc(-n2cc(-c3ccncc3)c(-c3cc(O)cc(Cl)c3)n2)c1)c1ccc(N2CCOCC2)c(C(F)(F)F)c1 | 58 |

These compounds were tested on SK-MEL-28 (assay: Growth inhibition of human SK-MEL-28 cells assessed as cell growth at 0.1 uM incubated for 48 hrs by sulforhodamine B assay relative to control). Conditions: SK-MEL-28, 48 h, read-out: Activity.
Format: functional

| SMILES | growth at 0.1 µM [%] |
| --- | --- |
| O=C(Nc1cccc(-n2cc(-c3ccncc3)c(-c3cc(O)cc(Cl)c3)n2)c1)c1ccc(N2CCOCC2)c(C(F)(F)F)c1 | 94 |

Each compound was assayed on SK-OV-3 (assay: Growth inhibition of human SKOV3 cells assessed as cell growth at 0.1 uM incubated for 48 hrs by sulforhodamine B assay relative to control). Conditions: SK-OV-3, 48 h, read-out: Activity.
Format: functional

| SMILES | growth at 0.1 µM [%] |
| --- | --- |
| O=C(Nc1cccc(-n2cc(-c3ccncc3)c(-c3cc(O)cc(Cl)c3)n2)c1)c1ccc(N2CCOCC2)c(C(F)(F)F)c1 | 102 |

These compounds were tested on HCC 2998 (assay: Growth inhibition of human HCC2998 cells assessed as cell growth at 1 uM incubated for 48 hrs by sulforhodamine B assay relative to control). Conditions: HCC 2998, 48 h, read-out: Activity.
Format: functional

| SMILES | growth at 1 µM [%] |
| --- | --- |
| O=C(Nc1cccc(-n2cc(-c3ccncc3)c(-c3cc(O)cc(Cl)c3)n2)c1)c1ccc(N2CCOCC2)c(C(F)(F)F)c1 | 70 |

What follows are compounds tested on SK-MEL-2 (assay: Growth inhibition of human SK-MEL-2 cells incubated for 48 hrs by sulforhodamine B assay). Conditions: SK-MEL-2, 48 h, read-out: GI50.
Format: functional, cell-based

| SMILES | GI50 [µM] |
| --- | --- |
| O=C(Nc1cccc(-n2cc(-c3ccncc3)c(-c3cc(O)cc(Cl)c3)n2)c1)c1ccc(N2CCOCC2)c(C(F)(F)F)c1 | 2.34 |

Same assay, conditions: SK-MEL-2, 48 h, read-out: LC50 (the source's name)

| SMILES | CC50 [µM] |
| --- | --- |
| O=C(Nc1cccc(-n2cc(-c3ccncc3)c(-c3cc(O)cc(Cl)c3)n2)c1)c1ccc(N2CCOCC2)c(C(F)(F)F)c1 | > 100 |

Same assay, conditions: SK-MEL-2, 48 h, read-out: TGI

| SMILES | TGI [µM] |
| --- | --- |
| O=C(Nc1cccc(-n2cc(-c3ccncc3)c(-c3cc(O)cc(Cl)c3)n2)c1)c1ccc(N2CCOCC2)c(C(F)(F)F)c1 | 13.2 |

Same assay, conditions: SK-MEL-2, 48 h, read-out: pGI50 (converted)

| SMILES | GI50 [µM] |
| --- | --- |
| O=C(Nc1cccc(-n2cc(-c3ccncc3)c(-c3cc(O)cc(Cl)c3)n2)c1)c1ccc(N2CCOCC2)c(C(F)(F)F)c1 | 2.34 |

Same assay, conditions: SK-MEL-2, 48 h, read-out: pLC50 (the source's name) (converted)

| SMILES | CC50 [µM] |
| --- | --- |
| O=C(Nc1cccc(-n2cc(-c3ccncc3)c(-c3cc(O)cc(Cl)c3)n2)c1)c1ccc(N2CCOCC2)c(C(F)(F)F)c1 | > 100 |

Same assay, conditions: SK-MEL-2, 48 h, read-out: pTGI (converted)

| SMILES | TGI [µM] |
| --- | --- |
| O=C(Nc1cccc(-n2cc(-c3ccncc3)c(-c3cc(O)cc(Cl)c3)n2)c1)c1ccc(N2CCOCC2)c(C(F)(F)F)c1 | 13.2 |

What follows are compounds tested on SK-MEL-28 (assay: Growth inhibition of human SK-MEL-28 cells incubated for 48 hrs by sulforhodamine B assay). Conditions: SK-MEL-28, 48 h, read-out: GI50.
Format: functional, cell-based

| SMILES | GI50 [µM] |
| --- | --- |
| O=C(Nc1cccc(-n2cc(-c3ccncc3)c(-c3cc(O)cc(Cl)c3)n2)c1)c1ccc(N2CCOCC2)c(C(F)(F)F)c1 | 0.759 |

Same assay, conditions: SK-MEL-28, 48 h, read-out: LC50 (the source's name)

| SMILES | CC50 [µM] |
| --- | --- |
| O=C(Nc1cccc(-n2cc(-c3ccncc3)c(-c3cc(O)cc(Cl)c3)n2)c1)c1ccc(N2CCOCC2)c(C(F)(F)F)c1 | > 100 |

Same assay, conditions: SK-MEL-28, 48 h, read-out: TGI

| SMILES | TGI [µM] |
| --- | --- |
| O=C(Nc1cccc(-n2cc(-c3ccncc3)c(-c3cc(O)cc(Cl)c3)n2)c1)c1ccc(N2CCOCC2)c(C(F)(F)F)c1 | 32.7 |

Same assay, conditions: SK-MEL-28, 48 h, read-out: pGI50 (converted)

| SMILES | GI50 [µM] |
| --- | --- |
| O=C(Nc1cccc(-n2cc(-c3ccncc3)c(-c3cc(O)cc(Cl)c3)n2)c1)c1ccc(N2CCOCC2)c(C(F)(F)F)c1 | 0.759 |

Same assay, conditions: SK-MEL-28, 48 h, read-out: pLC50 (the source's name) (converted)

| SMILES | CC50 [µM] |
| --- | --- |
| O=C(Nc1cccc(-n2cc(-c3ccncc3)c(-c3cc(O)cc(Cl)c3)n2)c1)c1ccc(N2CCOCC2)c(C(F)(F)F)c1 | > 100 |

Same assay, conditions: SK-MEL-28, 48 h, read-out: pTGI (converted)

| SMILES | TGI [µM] |
| --- | --- |
| O=C(Nc1cccc(-n2cc(-c3ccncc3)c(-c3cc(O)cc(Cl)c3)n2)c1)c1ccc(N2CCOCC2)c(C(F)(F)F)c1 | 3.24 |

The compounds below were run on ACHN (assay: Growth inhibition of human ACHN cells assessed as cell growth at 0.01 uM incubated for 48 hrs by sulforhodamine B assay relative to control). Conditions: read-out: Activity.
Format: functional

| SMILES | growth at 0.01 µM [%] |
| --- | --- |
| O=C(Nc1cccc(-n2cc(-c3ccncc3)c(-c3cc(O)cc(Cl)c3)n2)c1)c1ccc(N2CCOCC2)c(C(F)(F)F)c1 | 100 |

The compounds below were run on 786-0 (assay: Growth inhibition of human 786-0 cells assessed as cell growth at 0.01 uM incubated for 48 hrs by sulforhodamine B assay relative to control). Conditions: 786-0, 48 h, read-out: Activity.
Format: functional

| SMILES | growth at 0.01 µM [%] |
| --- | --- |
| O=C(Nc1cccc(-n2cc(-c3ccncc3)c(-c3cc(O)cc(Cl)c3)n2)c1)c1ccc(N2CCOCC2)c(C(F)(F)F)c1 | 102 |

What follows are compounds tested on NCI-H226 (assay: Growth inhibition of human NCI-H226 cells incubated for 48 hrs by sulforhodamine B assay). Conditions: NCI-H226, 48 h, read-out: GI50.
Format: functional, cell-based

| SMILES | GI50 [µM] |
| --- | --- |
| O=C(Nc1cccc(-n2cc(-c3ccncc3)c(-c3cc(O)cc(Cl)c3)n2)c1)c1ccc(N2CCOCC2)c(C(F)(F)F)c1 | 2.56 |

Same assay, conditions: NCI-H226, 48 h, read-out: LC50

| SMILES | LC50 [µM] |
| --- | --- |
| O=C(Nc1cccc(-n2cc(-c3ccncc3)c(-c3cc(O)cc(Cl)c3)n2)c1)c1ccc(N2CCOCC2)c(C(F)(F)F)c1 | > 100 |

Same assay, conditions: NCI-H226, 48 h, read-out: TGI

| SMILES | TGI [µM] |
| --- | --- |
| O=C(Nc1cccc(-n2cc(-c3ccncc3)c(-c3cc(O)cc(Cl)c3)n2)c1)c1ccc(N2CCOCC2)c(C(F)(F)F)c1 | > 100 |

Same assay, conditions: NCI-H226, 48 h, read-out: pGI50 (converted)

| SMILES | GI50 [µM] |
| --- | --- |
| O=C(Nc1cccc(-n2cc(-c3ccncc3)c(-c3cc(O)cc(Cl)c3)n2)c1)c1ccc(N2CCOCC2)c(C(F)(F)F)c1 | 28.8 |

Same assay, conditions: NCI-H226, 48 h, read-out: pLC50 (converted)

| SMILES | LC50 [µM] |
| --- | --- |
| O=C(Nc1cccc(-n2cc(-c3ccncc3)c(-c3cc(O)cc(Cl)c3)n2)c1)c1ccc(N2CCOCC2)c(C(F)(F)F)c1 | > 100 |

Same assay, conditions: NCI-H226, 48 h, read-out: pTGI (converted)

| SMILES | TGI [µM] |
| --- | --- |
| O=C(Nc1cccc(-n2cc(-c3ccncc3)c(-c3cc(O)cc(Cl)c3)n2)c1)c1ccc(N2CCOCC2)c(C(F)(F)F)c1 | > 100 |

These compounds were tested on COLO 205 (assay: Growth inhibition of human COLO205 cells assessed as cell growth at 1 uM incubated for 48 hrs by sulforhodamine B assay relative to control). Conditions: COLO 205, 48 h, read-out: Activity.
Format: functional

| SMILES | growth at 1 µM [%] |
| --- | --- |
| O=C(Nc1cccc(-n2cc(-c3ccncc3)c(-c3cc(O)cc(Cl)c3)n2)c1)c1ccc(N2CCOCC2)c(C(F)(F)F)c1 | 100 |
